Test results published in PubChem BioAssay AID248 (DTP/NCI, 2004).
Several values for one entry are separate records, joined by “and”; a condition that tells them apart may be missing. Equal entries are not always repeated. Toxic doses and inconclusive results are not listed. Cut-off read from the data, not from the text of the source: active = T/C of 150% or more; inactive = T/C below 125%.

Test system: L1210 leukemia ip in BDF1 mice, survival T/C
Assay: NCI In Vivo Anticancer Drug Screen. Data for tumor model L1210 Leukemia (intraperitoneal) in B6D2F1 (BDF1) mice
Conditions: endpoint: mean survival time, higher = longer survival
Method in brief: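 In this screen, tumor-bearing mice given compound are compared to those given vehicle, and their survival values are reported as a treated-to-control quotient.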

[1] = dose: 25.0 mg/kg/injection, schedule: Q04DX003 (ip), vehicle: saline
[2] = dose: 50.0 mg/kg/injection, schedule: Q04DX003 (ip), vehicle: saline
[3] = dose: 100.0 mg/kg/injection, schedule: Q01DX001 (ip), vehicle: carboxymethylcellulose (CMC)
[4] = dose: 100.0 mg/kg/injection, schedule: Q01DX001 (ip), vehicle: saline with Tween-80
[5] = dose: 100.0 mg/kg/injection, schedule: Q04DX003 (ip), vehicle: saline with Tween-80
[6] = dose: 100.0 mg/kg/injection, schedule: Q04DX002 (ip), vehicle: Klucel (hydroxypropylcellulose) (HPC)
[7] = dose: 200.0 mg/kg/injection, schedule: Q04DX002 (ip), vehicle: Klucel (hydroxypropylcellulose) (HPC)
[8] = dose: 400.0 mg/kg/injection, schedule: Q04DX002 (ip), vehicle: Klucel (hydroxypropylcellulose) (HPC)
[9] = dose: 100.0 mg/kg/injection, schedule: Q01DX001 (ip), vehicle: saline
[10] = dose: 200.0 mg/kg/injection, schedule: Q01DX001 (ip), vehicle: saline
[11] = dose: 100.0 mg/kg/injection, schedule: Q01DX009 (ip), vehicle: saline with Tween-80
[12] = dose: 200.0 mg/kg/injection, schedule: Q01DX009 (ip), vehicle: saline with Tween-80
[13] = dose: 200.0 mg/kg/injection, schedule: Q04DX003 (ip), vehicle: saline with Tween-80
[14] = dose: 400.0 mg/kg/injection, schedule: Q01DX009 (ip), vehicle: saline with Tween-80
[15] = dose: 400.0 mg/kg/injection, schedule: Q04DX003 (ip), vehicle: saline with Tween-80
[16] = dose: 100.0 mg/kg/injection, schedule: Q01DX009 (ip), vehicle: Klucel (hydroxypropylcellulose) (HPC)
[17] = dose: 100.0 mg/kg/injection, schedule: Q04DX003 (ip), vehicle: Klucel (hydroxypropylcellulose) (HPC)
[18] = dose: 200.0 mg/kg/injection, schedule: Q01DX009 (ip), vehicle: Klucel (hydroxypropylcellulose) (HPC)
[19] = dose: 200.0 mg/kg/injection, schedule: Q04DX003 (ip), vehicle: Klucel (hydroxypropylcellulose) (HPC)
[20] = dose: 400.0 mg/kg/injection, schedule: Q01DX009 (ip), vehicle: Klucel (hydroxypropylcellulose) (HPC)
[21] = dose: 400.0 mg/kg/injection, schedule: Q04DX003 (ip), vehicle: Klucel (hydroxypropylcellulose) (HPC)

Measured: T/C

C/C=C/c1ccc2ccc[n+](C)c2c1O
inactive: [1] 94 % of control | dose: 50.0 mg/kg/injection, schedule: Q01DX001 (ip), vehicle: carboxymethylcellulose (CMC) 103 % of control | [2] 98 % of control | [3] 95 % of control | dose: 100.0 mg/kg/injection, schedule: Q04DX003 (ip), vehicle: saline 94 % of control

CCCCCCCC/C=C/CCCCCCCCC1=NCCN1CCO
inactive: dose: 2.5 mg/kg/injection, schedule: Q01DX009 (ip), vehicle: saline 104 % of control | dose: 5.0 mg/kg/injection, schedule: Q01DX009 (ip), vehicle: saline 93 % of control | dose: 10.0 mg/kg/injection, schedule: Q01DX001 (ip), vehicle: saline 90 % of control | dose: 10.0 mg/kg/injection, schedule: Q01DX009 (ip), vehicle: saline 104 % of control | dose: 20.0 mg/kg/injection, schedule: Q01DX001 (ip), vehicle: saline 92 % of control

O=S(=O)(NNS(=O)(=O)c1ccccc1)c1ccccc1
inactive: [4] 101 % of control | dose: 200.0 mg/kg/injection, schedule: Q01DX001 (ip), vehicle: saline with Tween-80 94 % of control | dose: 400.0 mg/kg/injection, schedule: Q01DX001 (ip), vehicle: saline with Tween-80 88 % of control

CC(N)COCc1ccccc1 (stereo unspecified)
inactive: dose: 25.0 mg/kg/injection, schedule: Q01DX009 (ip), vehicle: saline 97 % of control | dose: 25.0 mg/kg/injection, schedule: Q04DX003 (ip), vehicle: saline with Tween-80 97 % of control | dose: 50.0 mg/kg/injection, schedule: Q01DX009 (ip), vehicle: saline 97 % of control | dose: 50.0 mg/kg/injection, schedule: Q04DX003 (ip), vehicle: saline with Tween-80 119 % of control | [5] 97 % of control and 88 % of control

C1=C(c2ccccc2)N(CCc2ccccc2)C(c2ccccc2)=CN1Cc1ccccc1
inactive: [6] 96 % of control | [7] 103 % of control | [8] 92 % of control

Cc1cc(C(=O)CC(C)C(=O)O)cc2c1sc1ccccc12 (stereo unspecified)
inactive: [9] 86 % of control | [10] 100 % of control

CC1(C)C=CC2CC2(C)C(=O)C1 (stereo unspecified)
inactive: dose: 100.0 mg/kg/injection, schedule: Q04DX002 (ip), vehicle: saline with Tween-80 98 % of control | dose: 200.0 mg/kg/injection, schedule: Q04DX002 (ip), vehicle: saline with Tween-80 112 % of control | dose: 400.0 mg/kg/injection, schedule: Q04DX002 (ip), vehicle: saline with Tween-80 102 % of control

O=C(/C=C/c1ccccc1)c1cccc(Br)c1
inactive: [11] 106 % of control | [5] 97 % of control | [12] 91 % of control | [13] 96 % of control | [14] 96 % of control | [15] 96 % of control

CCOC(=O)CNC(=O)C1OC(n2cnc3c(N)ncnc32)C2OC(C)(C)OC12 (stereo unspecified)
inactive: dose: 100.0 mg/kg/injection, schedule: Q01DX005 (ip), vehicle: saline 95 % of control | dose: 200.0 mg/kg/injection, schedule: Q01DX005 (ip), vehicle: saline 92 % of control

Cc1ccc(Cl)cc1NS(=O)(=O)c1ccc2ccccc2c1
inactive: [11] 106 % of control | [5] 96 % of control | [12] 96 % of control | [13] 104 % of control | [14] 112 % of control | [15] 91 % of control

CCCc1c(C)[nH]c2ccccc12
inactive: [16] 104 % of control | [17] 105 % of control | [18] 92 % of control | [19] 104 % of control | [20] 95 % of control | [21] 105 % of control

C=CCCC1(CCC(C)C)C(=O)NC(=O)NC1=O
inactive: dose: 150.0 mg/kg/injection, schedule: Q01DX001 (ip), vehicle: saline 116 % of control

Cc1ccc(C2(C)CC/C(=N\NC(=O)c3ccccc3)c3cc(C)c(C)cc32)cc1C (stereo unspecified)
inactive: [9] 97 % of control | [10] 98 % of control | dose: 400.0 mg/kg/injection, schedule: Q01DX001 (ip), vehicle: saline 104 % of control

O=[N+]([O-])c1ccc(O)c(CN(Cc2ccccc2)Cc2c(O)ccc3ccccc23)c1
inactive: [3] 98 % of control | dose: 200.0 mg/kg/injection, schedule: Q01DX001 (ip), vehicle: carboxymethylcellulose (CMC) 93 % of control | dose: 400.0 mg/kg/injection, schedule: Q01DX001 (ip), vehicle: carboxymethylcellulose (CMC) 96 % of control

CC[N+](C)(CC)CCCN(C)C(=O)C(c1ccccc1)c1ccccc1
inactive: dose: 12.5 mg/kg/injection, schedule: Q01DX001 (ip), vehicle: saline 92 % of control | dose: 12.5 mg/kg/injection, schedule: Q04DX003 (ip), vehicle: saline 98 % of control | dose: 25.0 mg/kg/injection, schedule: Q01DX001 (ip), vehicle: saline 103 % of control | [1] 93 % of control | dose: 50.0 mg/kg/injection, schedule: Q01DX001 (ip), vehicle: saline 92 % of control | [2] 93 % of control | dose: 75.0 mg/kg/injection, schedule: Q04DX003 (ip), vehicle: saline 97 % of control

COc1cc(N(CCCl)CCCl)ccc1C1N(Cc2ccc(N(C)C)cc2)CCCN1Cc1ccc(N(C)C)cc1
inactive: [17] 100 % of control | [19] 107 % of control | [21] 104 % of control

CCCCCCCCCCCC[Si](Cl)(Cl)Cl
inactive: dose: 75.0 mg/kg/injection, schedule: Q01DX001 (ip), vehicle: saline 105 % of control

COC(=O)C1=C(O)C(=O)N(c2ccccc2)C1
inactive: [4] 88 % of control

CC(=O)Nc1ccc2c(c1)C(=O)c1cc(F)ccc1-2
inactive: [5] 100 % of control | [13] 96 % of control | [15] 110 % of control

O=C(NC(=S)Nc1ccccc1C(F)(F)F)c1ccccc1F
inactive: [16] 98 % of control and 103 % of control | [6] 105 % of control and 110 % of control | [17] 93 % of control | [18] 98 % of control and 111 % of control | [7] 105 % of control and 90 % of control | [19] 90 % of control | [20] 94 % of control and 108 % of control | [8] 94 % of control and 113 % of control | [21] 91 % of control

O=S(=O)(O)c1cccc2c(S(=O)(=O)O)cccc12
inactive: [17] 107 % of control | [19] 100 % of control | [21] 97 % of control

Cc1ccc(NC(=O)c2ccco2)cc1Cl
inactive: dose: 100.0 mg/kg/injection, schedule: Q01DX001 (ip), vehicle: Klucel (hydroxypropylcellulose) (HPC) 93 % of control | [6] 102 % of control | dose: 200.0 mg/kg/injection, schedule: Q01DX001 (ip), vehicle: Klucel (hydroxypropylcellulose) (HPC) 89 % of control | [7] 118 % of control | dose: 400.0 mg/kg/injection, schedule: Q01DX001 (ip), vehicle: Klucel (hydroxypropylcellulose) (HPC) 105 % of control | [8] 123 % of control

Cc1cc(=O)n(-c2ccccc2)n1C.[Cl-].[Cl-].[Cl-].[Cl-].[Pt+2]
inactive: [5] 97 % of control | [13] 103 % of control | [15] 105 % of control

S=c1cccc[nH]1.[Pb]
inactive: dose: 100.0 mg/kg/injection, schedule: Q04DX002 (ip), vehicle: gum acacia 103 % of control | dose: 200.0 mg/kg/injection, schedule: Q04DX002 (ip), vehicle: gum acacia 100 % of control
